Experimental findings from ChEMBL document CHEMBL3774383, “Design and synthesis of [(125)I]Pyricoxib: A novel (125)I-labeled cyclooxygenase-2 (COX-2) inhibitors” (Bioorg Med Chem Lett, 2016) are described below.

As a reminder, the pIC50 is the IC50 on a negative log10 scale, so that one unit is a factor of ten. Low values mean a large IC50, high ones a small IC50.

Test [1] addresses T1, Prostaglandin G/H synthase 2 (Homo sapiens, UniProt P35354).
T1 sequence (P35354 whole entry): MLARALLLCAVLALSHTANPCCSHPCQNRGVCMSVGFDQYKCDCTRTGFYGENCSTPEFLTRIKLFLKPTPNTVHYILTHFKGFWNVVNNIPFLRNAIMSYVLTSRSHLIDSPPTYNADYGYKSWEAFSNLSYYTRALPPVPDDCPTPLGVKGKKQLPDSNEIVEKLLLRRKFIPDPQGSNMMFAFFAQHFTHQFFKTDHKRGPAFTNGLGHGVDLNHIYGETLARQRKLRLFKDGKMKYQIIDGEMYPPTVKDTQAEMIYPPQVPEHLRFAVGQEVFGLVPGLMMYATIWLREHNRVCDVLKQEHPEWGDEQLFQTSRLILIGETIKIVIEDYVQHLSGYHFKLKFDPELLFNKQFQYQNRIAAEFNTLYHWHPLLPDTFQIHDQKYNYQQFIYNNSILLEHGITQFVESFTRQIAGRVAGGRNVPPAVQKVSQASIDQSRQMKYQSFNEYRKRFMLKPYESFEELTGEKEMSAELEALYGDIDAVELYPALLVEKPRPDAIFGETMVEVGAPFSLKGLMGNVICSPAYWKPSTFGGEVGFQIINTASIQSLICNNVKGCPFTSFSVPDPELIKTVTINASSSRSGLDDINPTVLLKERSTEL
As to the kind of experiment: Inhibition of COX-2 (unknown origin).

Test [2] addresses T1, Prostaglandin G/H synthase 2.
Test [3] has as its target T2, Prostaglandin G/H synthase 1 (Ovis aries, UniProt P05979).
T2 sequence (P05979 whole entry): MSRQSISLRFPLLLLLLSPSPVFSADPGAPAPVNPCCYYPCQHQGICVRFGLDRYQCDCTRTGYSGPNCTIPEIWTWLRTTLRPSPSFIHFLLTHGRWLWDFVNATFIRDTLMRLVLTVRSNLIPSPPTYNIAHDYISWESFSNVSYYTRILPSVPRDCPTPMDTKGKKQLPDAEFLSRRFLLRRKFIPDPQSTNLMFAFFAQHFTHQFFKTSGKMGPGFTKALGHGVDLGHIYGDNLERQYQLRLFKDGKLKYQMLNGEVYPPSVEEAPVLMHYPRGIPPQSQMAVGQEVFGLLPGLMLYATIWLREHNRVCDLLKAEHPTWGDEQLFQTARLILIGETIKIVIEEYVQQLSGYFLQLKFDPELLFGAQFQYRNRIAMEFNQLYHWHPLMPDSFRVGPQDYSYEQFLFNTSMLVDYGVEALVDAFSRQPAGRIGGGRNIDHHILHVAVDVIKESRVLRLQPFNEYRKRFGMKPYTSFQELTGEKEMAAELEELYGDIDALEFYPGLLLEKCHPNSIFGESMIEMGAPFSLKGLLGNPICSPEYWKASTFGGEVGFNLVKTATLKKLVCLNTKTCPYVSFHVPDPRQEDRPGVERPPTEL
Nature of the test: Inhibition of ovine COX-1 preincubated for 5 mins followed by addition of arachidonic acid as substrate measured after 2 mins by fluorescence analysis.

A short description of test [4]: Selectivity index,ratio of IC50 for ovine COX-1 to recombinant human COX-2.
Test [5] has as its target COX-1/COX-2 (Homo sapiens) (UniProt P35354+P23219). As to the kind of experiment: Selectivity index, ratio of IC50 for COX-2 (unknown origin) to COX-1 (unknown origin).

pIC50: −log10 of the molar value.

Chain of COX-1/COX-2 (Homo sapiens) (P23219 whole entry, looked up, one chain of several): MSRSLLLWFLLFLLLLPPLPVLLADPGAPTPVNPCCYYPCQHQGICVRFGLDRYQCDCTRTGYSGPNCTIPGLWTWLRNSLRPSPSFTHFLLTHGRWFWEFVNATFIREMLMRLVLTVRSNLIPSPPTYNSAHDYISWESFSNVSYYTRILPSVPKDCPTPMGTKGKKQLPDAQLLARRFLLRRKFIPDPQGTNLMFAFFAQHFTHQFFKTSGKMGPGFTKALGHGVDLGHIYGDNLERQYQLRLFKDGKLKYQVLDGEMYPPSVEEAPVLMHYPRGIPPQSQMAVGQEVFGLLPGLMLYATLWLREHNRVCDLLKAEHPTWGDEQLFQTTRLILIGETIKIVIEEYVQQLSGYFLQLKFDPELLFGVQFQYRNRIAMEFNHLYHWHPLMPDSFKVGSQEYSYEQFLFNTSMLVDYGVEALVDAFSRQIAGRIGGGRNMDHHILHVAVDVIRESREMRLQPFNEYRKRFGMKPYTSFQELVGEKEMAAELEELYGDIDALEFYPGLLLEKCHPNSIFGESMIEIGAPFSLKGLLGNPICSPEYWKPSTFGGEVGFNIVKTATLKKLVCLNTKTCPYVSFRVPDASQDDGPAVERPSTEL

As to `CS(=O)(=O)c1ccc(-n2nc(C(F)(F)F)cc2-c2ccc(I)cc2)cc1`, the negative logarithm of the IC50 (pIC50) in test [1] is 5.28.
On the same count and under the same terms, to `Cc1ccc(Nc2c(F)cccc2Cl)c(CC(=O)O)c1` [LUMIRACOXIB] belongs 7.22.
As for `NS(=O)(=O)c1ccc(-c2cc(C(F)(F)F)nc(NCc3ccc(I)cc3)n2)cc1`, the pIC50 in test [2] is 4.89; in test [3], below 4.00. In test [4], the Ratio IC50 is above 7.5.
Taken in the same sequence, the figures for `CS(=O)(=O)c1ccc(-c2cc(C(F)(F)F)nc(NCc3ccc(I)cc3)n2)cc1` were 6.07, below 4.00 and above 100.
In the case of `NS(=O)(=O)c1ccc(-n2nc(C(F)(F)F)cc2-c2ccc(I)cc2)cc1`, in test [1], the pIC50 is 5.09. Further, in test [5], the Ratio IC50 is 10.
Take `CS(=O)(=O)c1ccc(-c2cc(C(F)(F)F)nc(OCc3ccc(I)cc3)n2)cc1`: the figures for the negative-log IC50 (pIC50) in test [2] and in test [3] were 5.60 and below 4.00, respectively. Also, the Ratio IC50 in test [4] was above 40.
The molecule `Cc1ccc(Nc2c(F)cccc2I)c(CC(=O)O)c1` showed a pIC50 in test [1] of 5.60. In addition, the Ratio IC50 in test [5] amounted to 10.
In turn, `CS(=O)(=O)c1ccc(-c2cc(C(F)(F)F)nc(NCc3ccc(F)cc3)n2)cc1` showed a pIC50 in test [3] below 4.00.
